# Structures can show the parent of a compound that is named as a salt.
# What was measured:
# Type in all cases: in vivo, C57BL/6J, male
# [1] = test system: memory (recognition of the familiar object) in mice; assay: Novel Object Recognition (NOR) test in mice; conditions: mean, N = 16
# Description: The test was carried out in circular boxes (30 cm diameter, 40 cm high). The objects to be discriminated (L≈1≈h≈3-4 cm) differed in both color and shape and were referred as yellow duck and blue lego. They were fixed with a magnet to the floor of the boxes at 5 cm of the wall, 20 cm distant. Apparently, they have no natural significance for mice and they have never been associated with a reinforcement. In order to rule out the possibility of scent traces left on the objects and therefore the dependency of the recognition capacity of mice on the olfactory cue, the objects and the ground of the box were washed with an odorless disinfectant (Sanicid® diluted in water) and dried between each trial. A camcorder was fixed to the ceiling above the box to record the animals' activity. The experiment was analyzed blindly at a later time.
# On the week before the test, animals were handled by the experimenter in charge of the experiment in order to be not stressed at the time of testing. For this purpose, the experimenter placed a small amount of litter, and then the mouse on its hand.
# The NOR test was completed over five days (see FIG. 1): • Day 1: Habituation trial. Animals were individually placed for a 15-min free exploration session in empty open boxes. • Day 2. Treatment administration and sample trial. […] They were individually placed 30 min after in the apparatus for a 6-min session with two identical objects (Duck, 50% of animals or Lego, 50% of animals). • Day 3. Choice trial. The mice were individually placed for a 6-min session in the apparatus with two objects (Duck and Lego), one of the objects presented in sample trials (termed as familiar objects) and a novel object (Lego, 50% of animals or Duck, 50% of animals).
# The sample and choice trials were recorded with the camera located above the apparatus. The time spent by mice in exploring the objects was measured during the sample trial and the choice trial. Exploration of an object was defined as follows: directing the nose to the object at a distance≤2 cm and/or touching it with the nose or forelimbs; turning around or biting the object, or sitting on the object were not considered as exploratory behavior.
# • L=exploration time of the left object in the sample trial. • R=exploration time of the right object in the sample trial. • N=exploration time of the new object in the choice trial. • F=exploration time of the familiar object in the choice trial.
# • Exploration indices: • ST=L+R=exploration time (left object+right object) in the sample trial. • CT=N+F=exploration time (new object+familiar object) in the choice trial. • Two memory indices: • N-F=difference of exploration time between the new object and the familiar object in the choice trial.
# (§1) Statistical analyses: • Read-outs: DI, N-F, ST, CT, N, F • Unpaired Student's t test: Donep 2 group vs. Control group. • One-way ANOVA, Dunnett test: • NLS-12 groups vs. Control group. • NLS-12 groups vs. Donep 2 group. • Read-outs: DI and N-F, for all groups, paired Student's t test, difference vs. 0. • Body weight: one-way ANOVA.
# [2] = test system: memory (recognition of the familiar object) in mice; assay: Novel Object Recognition (NOR) test in mice; conditions: Donepezil 2 mg/kg i.p., 72 h post treatment, mean, N = 16
# [3] = Body weight of the mice in the NOR study; conditions: Donepezil 2 mg/kg i.p. group; mean, N = 16
# From the text: as §1
smiles,measurement,setting,value
"COc1cc2c(cc1OC)C(=O)C(CC1CCN(Cc3ccccc3)CC1)C2 (stereo not shown) [Donepezil, Donepezil hydrochloride, reference compound]",N − F Exploration time novel − familiar object,"[1]; Donepezil 2 mg/kg i.p. 30 min before sample trial, choice trial",4.3 s
same,ST Exploration time in the sample trial,"[1]; Donepezil 2 mg/kg i.p., 30 min post treatment",20.2 s
same,ST Exploration time in the sample trial (s),"[1]; Donepezil 2 mg/kg i.p., 30 min post treatment, hydrochloride",decreased the exploration time during the sample trial
same,N Exploration time of novel object,"[1]; Donepezil 2 mg/kg i.p., choice trial",13.1 s
same,CT Exploration time in the choice trial (s) = N + F,[2],21.7 s
same,CT Exploration time in the choice trial (s) = N + F,[2]; hydrochloride,did not significantly modify the exploration time during the choice trial
same,BW Body weight,[3],23.2 g

# Reference: patent US20250268859A1, “OXAFURAMINE, (1R)-N-ETHYL-1-[(2R)-OXOLAN-2-YL]-2-[…], HYDROCHLORIDE AND DERIVATIVES THEREOF FOR TREATING ALZHEIMER'S DISEASE (AD), […] […], […] WITH LEWY BODIES (DLB), MIXED […], FRON[…] DEGENERATION (FTLD), AND PARKINSON'S DISEASE (PD)” (NLS Pharmaceutics AG, priority 2021, published 2025)
